{"source": "paper PMC7139822", "about": "“Flumazenil-Insensitive Benzodiazepine Effects in Recombinant αβ and Neuronal GABAA Receptors” (Brain Sciences, 2020)", "target": "T1, α1β2 receptor (Rattus norvegicus, UniProt P62813+P63138)", "T1 construct": "gene Gabra1; full-length rat subunit cDNAs by RT-PCR from brain mRNA; α in pcDNA3.1(+), β in pIRES2-EGFP (EGFP separate via IRES); HEK293; α:β cDNA 1:1, said to favor 2α:3β pentamer", "T1 sequence (P62813 28-455)": "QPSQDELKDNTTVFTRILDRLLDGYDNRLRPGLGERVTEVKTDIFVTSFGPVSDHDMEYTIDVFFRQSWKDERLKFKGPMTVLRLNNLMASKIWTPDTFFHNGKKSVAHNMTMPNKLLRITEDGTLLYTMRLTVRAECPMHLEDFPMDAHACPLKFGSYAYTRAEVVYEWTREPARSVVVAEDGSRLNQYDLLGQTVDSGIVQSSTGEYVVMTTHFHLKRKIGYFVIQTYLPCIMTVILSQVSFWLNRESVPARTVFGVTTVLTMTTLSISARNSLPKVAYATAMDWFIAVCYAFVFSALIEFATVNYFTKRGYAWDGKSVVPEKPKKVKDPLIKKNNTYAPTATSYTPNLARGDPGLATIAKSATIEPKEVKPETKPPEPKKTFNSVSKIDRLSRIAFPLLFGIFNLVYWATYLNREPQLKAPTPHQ", "T1 sequence (P63138 26-474)": "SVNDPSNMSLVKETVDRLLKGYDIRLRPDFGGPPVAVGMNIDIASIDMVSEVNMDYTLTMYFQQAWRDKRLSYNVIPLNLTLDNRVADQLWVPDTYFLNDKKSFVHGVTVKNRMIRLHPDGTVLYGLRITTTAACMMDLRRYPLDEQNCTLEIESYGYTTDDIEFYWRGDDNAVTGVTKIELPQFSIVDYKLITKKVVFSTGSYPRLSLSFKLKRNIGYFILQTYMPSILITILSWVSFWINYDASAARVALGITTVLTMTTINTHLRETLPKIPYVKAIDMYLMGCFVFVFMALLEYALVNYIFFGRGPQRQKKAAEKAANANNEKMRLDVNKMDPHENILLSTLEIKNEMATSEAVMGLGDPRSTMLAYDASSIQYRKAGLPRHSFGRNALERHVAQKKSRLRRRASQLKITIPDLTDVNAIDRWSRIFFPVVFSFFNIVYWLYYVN", "assay": "whole-cell patch clamp, HEK293", "type": "cell-based", "details": "200 µM; positive allosteric modulator, non-classical site; co-applied with 0.1 μmol/L GABA; −60 mV; pH 7.4", "source_text": "whole-cell patch clamp, HEK293 on α1β2 receptor"}
{"smiles": "Cc1ncc2n1-c1ccc(Cl)cc1C(c1ccccc1F)=NC2", "note": "[Midazolam]", "values": [{"measurement": "Potentiation of GABA Currents (%) / (Midazolam)", "value": "171.8 ± 13.8", "unit": "%"}]}
